Experimental data reported in US6462037B1, “1,4-benzodiazepin-2-ones useful as HIV reverse transcriptase inhibitors” (Bristol-Myers Squibb Pharma Company, priority 1999, dated 2002).

| Structure (SMILES) | melting point |
| --- | --- |
| O=C1C=NC(CCc2ccccc2)(C(F)(F)F)c2cc(Cl)ccc2N1 (stereo not shown) [compound 170, 7-Chloro-5-(2-phenylethyl)-1,5-dihydro-5-(trifluoromethyl)-1,4-benzodiazepin-2-one] | 182 to 183 °C |
| COc1ccc2c(c1)C(C#CC1CC1)(C(F)(F)F)N=CC(=O)N2 (stereo not shown) [compound 198, 7-Methoxy-5-(cyclopropylethynyl)-1,5-dihydro-5-(trifluoromethyl)-1,4-benzodiazepin-2-one] | 145 to 146 °C |
| O=C1CN(CC#CC2CC2)C(C(F)(F)F)c2cc(Cl)ccc2N1 (stereo not shown) [compound 127, 7-Chloro-4-(3-cyclopropyl-2-propynyl)-1,5-dihydro-5-(trifluoromethyl)-1,4-benzodiazepin-2-one] | 121 to 123 °C |
| CCCCN1CC(=O)Nc2ccc(Cl)cc2C1(C#CC(C)C)C(F)(F)F (stereo not shown) [compound 136, 7-Chloro-4-butyl-5-(3-methyl-1-butynyl)-1,5-dihydro-5-(trifluoromethyl)-1,4-benzodiazepin-2-one] | 123 to 125 °C |
| CCCC#CCN1CC(=O)Nc2ccc(Cl)cc2C1C(F)(F)F (stereo not shown) [compound 129, 7-Chloro-4-(2-hexynyl)-1,5-dihydro-5-(trifluoromethyl)-1,4-benzodiazepin-2-one] | 96 to 98 °C |
| COc1cccc(OC)c1CN1CC(=O)Nc2ccc(Cl)cc2C1C(F)(F)F (stereo not shown) [compound 143, 7-Chloro-4-(2,6-dimethoxybenzyl)-1,5-dihydro-5-(trifluoromethyl)-1,4-benzodiazepin-2-one] | 128 to 129 °C |
| CCC(C)CCN1CC(=O)Nc2ccc(Cl)cc2C1C(F)(F)F (stereo not shown) [compound 125, 7-Chloro-4-(3-methylpentyl)-1,5-dihydro-5-(trifluoromethyl)-1,4-benzodiazepin-2-one] | 66 to 67 °C |
| CN1CC(=O)Nc2ccc(Cl)cc2C1(C#CC1CC1)C(F)(F)F (stereo not shown) [compound 175, 7-Chloro-4-methyl-5-(cyclopropylethynyl)-1,5-dihydro-5-(trifluoromethyl)-1,4-benzodiazepin-2-one] | 135 to 136 °C |
| CCCCCC1(C(F)(F)F)N=CC(=O)Nc2ccc(Cl)cc21 (stereo not shown) [compound 187, 7-Chloro-5-pentyl-1,5-dihydro-5-(trifluoromethyl)-1,4-benzodiazepin-2-one] | 153 to 155 °C |
| CCC1=NC(C#CC2CC2)(C(F)(F)F)c2ccccc2NC1=O (stereo not shown) [compound 186, 3-Ethyl-5-(cyclopropylethynyl)-1,5-dihydro-5-(trifluoromethyl)-1,4-benzodiazepin-2-one] | 181 to 182 °C |
| O=C1CN(CC#Cc2ccccc2)C(C(F)(F)F)c2cc(Cl)ccc2N1 (stereo not shown) [compound 154, 7-Chloro-4-(3-phenyl-2-propynyl)-1,5-dihydro-5-(trifluoromethyl)-1,4-benzodiazepin-2-one] | 138 to 139 °C |
| N#Cc1ccccc1CN1CC(=O)Nc2ccc(Cl)cc2C1C(F)(F)F (stereo not shown) [compound 116, 7-Chloro-4-(2-cyanobenzyl)-1,5-dihydro-5-(trifluoromethyl)-1,4-benzodiazepin-2-one] | 184 to 185 °C |
| Cc1ccccc1CN1CC(=O)Nc2ccc(Cl)cc2C1C(F)(F)F (stereo not shown) [compound 113, 7-Chloro-4-(2-methylbenzyl)-1,5-dihydro-5-(trifluoromethyl)-1,4-benzodiazepin-2-one] | 197 to 198 °C |
| CCCCCC1(C(F)(F)F)N=C(C)C(=O)Nc2ccc(Cl)cc21 (stereo not shown) [compound 171, 7-Chloro-3-methyl-5-(4-methylbutyl)-1,5-dihydro-5-(trifluoromethyl)-1,4-benzodiazepin-2-one] | 103 to 104 °C |
| CCC(C)CCN1CC(=O)Nc2ccc(Cl)cc2C1C(F)(F)F (stereo not shown) [compound 131, 7-Chloro-4-(3-methylpentyl)-1,5-dihydro-5-(trifluoromethyl)-1,4-benzodiazepin-2-one] | 113 to 116 °C |
| O=C1C=NC(Cc2ccccc2)(C(F)(F)F)c2cc(Cl)ccc2N1 (stereo not shown) [compound 168, 7-Chloro-5-benzyl-1,5-dihydro-5-(trifluoromethyl)-1,4-benzodiazepin-2-one] | 160 to 161 °C |
| COc1ccc(F)c(F)c1CN1CC(=O)Nc2ccc(Cl)cc2C1C(F)(F)F (stereo not shown) [compound 157, 7-Chloro-4-(2,3-difluoro-6-methoxybenzyl)-1,5-dihydro-5-(trifluoromethyl)-1,4-benzodiazepin-2-one] | 170 to 171 °C |
| O=C1CN(Cc2ccccc2Br)C(C(F)(F)F)c2cc(Cl)ccc2N1 (stereo not shown) [compound 114, 7-Chloro-4-(2-bromobenzyl)-1,5-dihydro-5-(trifluoromethyl)-1,4-benzodiazepin-2-one] | 161 to 162 °C |
| O=C1CN(Cc2c(F)cccc2F)C(C(F)(F)F)c2cc(Cl)ccc2N1 (stereo not shown) [compound 117, 7-Chloro-4-(2,6-difluorobenzyl)-1,5-dihydro-5-(trifluoromethyl)-1,4-benzodiazepin-2-one] | 173 to 174 °C |
| CC(C)C#CC1(C(F)(F)F)N=CC(=O)Nc2ccc(Cl)cc21 (stereo not shown) [compound 134, 7-Chloro-5-(3-methyl-1-butynyl)-1,5-dihydro-5-(trifluoromethyl)-1,4-benzodiazepin-2-one] | 185 to 187 °C |

| Structure (SMILES) | melting point |
| --- | --- |
| COc1ccccc1CN1CC(=O)Nc2ccc(Cl)cc2C1C(F)(F)F (stereo not shown) [compound 121, 7-Chloro-4-(2-methoxybenzyl)-1,5-dihydro-5-(trifluoromethyl)-1,4-benzodiazepin-2-one] | 145 to 146 °C |
| O=C1CN(Cc2cccc(F)c2)C(C(F)(F)F)c2cc(Cl)ccc2N1 (stereo not shown) [compound 142, 7-Chloro-4-(3-fluorobenzyl)-1,5-dihydro-5-(trifluoromethyl)-1,4-benzodiazepin-2-one] | 181 to 182 °C |
| O=C1CN(Cc2cccc(F)c2F)C(C(F)(F)F)c2cc(Cl)ccc2N1 (stereo not shown) [compound 147, 7-Chloro-4-(2,3-difluorobenzyl)-1,5-dihydro-5-(trifluoromethyl)-1,4-benzodiazepin-2-one] | 182 to 183 °C |
| O=C1C=NC(CCC(F)(F)F)(C(F)(F)F)c2c(ccc(F)c2F)N1 (stereo not shown) [compound 201, 6,7-Difluoro-5-(3,3,3-trifluoropropyl)-1,5-dihydro-5-(trifluoromethyl)-1,4-benzodiazepin-2-one] | 160 to 163 °C |
| CC#CCN1CC(=O)Nc2ccc(Cl)cc2C1C(F)(F)F (stereo not shown) [compound 166, 7-Chloro-4-(2-butynyl)-1,5-dihydro-5-(trifluoromethyl)-1,4-benzodiazepin-2-one] | 174 to 175 °C |
| O=C1C=NC(CC2CC2)(C(F)(F)F)c2cc(Cl)ccc2N1 (stereo not shown) [compound 196, 7-Chloro-5-(cyclopropylmethyl)-1,5-dihydro-5-(trifluoromethyl)-1,4-benzodiazepin-2-one] | 105 to 108 °C |
| O=C1CN(Cc2cccs2)C(C(F)(F)F)c2cc(Cl)ccc2N1 (stereo not shown) [compound 122, 7-Chloro-4-(2-thienylmethyl)-1,5-dihydro-5-(trifluoromethyl)-1,4-benzodiazepin-2-one] | 105 to 107 °C |
| CCCCN1CC(=O)Nc2ccc(Cl)cc2C1C(F)(F)F (stereo not shown) [compound 100, 7-Chloro-4-butyl-1,5-dihydro-5-(trifluoromethyl)-1,4-benzodiazepin-2-one] | 89 to 92 °C |
| Cc1ccc(CN2CC(=O)Nc3ccc(Cl)cc3C2C(F)(F)F)nc1 (stereo not shown) [compound 104, 7-Chloro-4-(5-methyl-2-pyridylmethyl)-1,5-dihydro-5-(trifluoromethyl)-1,4-benzodiazepin-2-one] | 200 to 205 °C |
| O=C1CN(Cc2ccccn2)C(C(F)(F)F)c2cc(Cl)ccc2N1 (stereo not shown) [compound 102, 7-Chloro-4-(2-pyridylmethyl)-1,5-dihydro-5-(trifluoromethyl)-1,4-benzodiazepin-2-one] | 184 to 187 °C |
| CCCCC1(C(F)(F)F)c2cc(Cl)ccc2NC(=O)CN1c1ccccc1 (stereo not shown) [compound 159, 7-Chloro-4-phenyl-5-butyl-1,5-dihydro-5-(trifluoromethyl)-1,4-benzodiazepin-2-one] | 177 to 178 °C |
| CCCCC1(C(F)(F)F)N=CC(=O)Nc2ccc(Cl)cc21 (stereo not shown) [compound 203, 7-Chloro-5-butyl-1,5-dihydro-5-(trifluoromethyl)-1,4-benzodiazepin-2-one] | 174 to 176 °C |
| COc1cccc(F)c1CN1CC(=O)Nc2ccc(Cl)cc2C1C(F)(F)F (stereo not shown) [compound 158, 7-Chloro-4-(2-fluoro-6-methoxybenzyl)-1,5-dihydro-5-(trifluoromethyl)-1,4-benzodiazepin-2-one] | 156 to 157 °C |
| CCC=CCN1CC(=O)Nc2ccc(Cl)cc2C1C(F)(F)F (stereo not shown) [compound 153, 7-Chloro-4-(2-penten-1-yl)-1,5-dihydro-5-(trifluoromethyl)-1,4-benzodiazepin-2-one] | 83 to 84 °C |
| O=C1CN(CCc2ccccc2I)C(C(F)(F)F)c2cc(Cl)ccc2N1 (stereo not shown) [compound 140, 7-Chloro-4-(2-(2-iodophenyl)ethyl)-1,5-dihydro-5-(trifluoromethyl)-1,4-benzodiazepin-2-one] | 172 to 173 °C |
| CC1=NC(CCC2CC2)(C(F)(F)F)c2cc(Cl)ccc2NC1=O (stereo not shown) [compound 194, 7-Chloro-3-methyl-5-(2-cyclopropylethyl)-1,5-dihydro-5-(trifluoromethyl)-1,4-benzodiazepin-2-one] | 146 to 148 °C |
| O=C1CN(Cc2ccccc2F)C(C(F)(F)F)c2cc(Cl)ccc2N1 (stereo not shown) [compound 137, 7-Chloro-4-(2-fluorobenzyl)-1,5-dihydro-5-(trifluoromethyl)-1,4-benzodiazepin-2-one] | 170 to 171 °C |
| Cc1ncc(CN2CC(=O)Nc3ccc(Cl)cc3C2C(F)(F)F)s1 (stereo not shown) [compound 103, 7-Chloro-4-(2-methyl-5-thiazolylmethyl)-1,5-dihydro-5-(trifluoromethyl)-1,4-benzodiazepin-2-one] | 196 to 220 °C |
| O=C1CN(Cc2ccccc2)C(C(F)(F)F)c2cc(Cl)ccc2N1 (stereo not shown) [compound 110, 7-Chloro-4-benzyl-1,5-dihydro-5-(trifluoromethyl)-1,4-benzodiazepin-2-one] | 142 to 143 °C |
| O=C1C=NC(CC(=O)C2CC2)(C(F)(F)F)c2cc(Cl)ccc2N1 (stereo not shown) [compound 167, 7-Chloro-5-(2-cyclopropyl-2-ethanonyl)-1,5-dihydro-5-(trifluoromethyl)-1,4-benzodiazepin-2-one] | 148 to 149 °C |
